Test results: patent US20250249026A1 (priority 2019, published 2025)
Several values for one entry are separate records, joined by “and”; a condition that tells them apart may be missing. Identical values can stand only once. Entries after “also recorded” stand apart in the source; their conditions may differ.

Tests used:
Macrophage RAW264.7 [1] = test: NO secretion of macrophage RAW264.7 (Embodiment 12); format: cell-based, Mouse; settings: for Lysate NO secretion amount / Supernatant NO secretion amount: Folate 15.625 μM, LPS group 1 μg/mL, mean, n = 6
Method: • 1. Cell line: Macrophage RAW264.7. • 2. […] II. Experimental scheme
An absorbance value at 520 nm was expressed as mean±standard deviation. NO secretion rate=(OD sample well-OD blank well)/(OD normal well-OD blank well)×100%, and the NO secretion amount was calculated according to a standard curve.

Macrophage RAW264.7 [2] = settings: 15.625, 62.5, 250 μmol/L; FIGS. 10-12
[3] = Removing peroxynitrite, SIN-1 as donor (Embodiment 9); format: biochemical; settings: SIN-1 1 μmol/L, 1, 10, 100 μmol/L, 302 nm, FIG. 7
Method: 3-morpholino-sydnonimine (SIN-1) as a peroxynitrite donor was added to 15 test tubes at a concentration of 1 μmol/L. 5-methyltetrahydrofolate calcium was added to test tubes containing the SIN-1 solution to the final concentrations of 1 μmol/L, 10 μmol/L, and 100 μmol/L respectively; dehydroascorbic acid was added to test tubes containing the SIN-1 solution to the final concentrations of 1 μmol/L, 10 μmol/L, and 100 μmol/L respectively; glutathione was added to test tubes containing the SIN-1 solution to the final concentrations of 1 μmol/L, 10 μmol/L, and 100 μmol/L respectively; NMN was added to test tubes containing the SIN-1 solution to the final concentrations of 1 μmol/L, 10 μmol/L, and 100 μmol/L respectively; and tetrahydrobiopterin was added to test tubes containing the SIN-1 solution to the final concentrations of 1 μmol/L, 10 μmol/L, and 100 μmol/L respectively. The concentration of peroxynitrite was determined by spectrophotometry at a detection wavelength of 302 nm.

iNOS = test: Expression of iNOS in macrophages induced by LPS (Embodiment 8); format: cell-based, Mouse; settings: 10 μmol/L, LPS 0.1 μg/mL, 24 h, ELISA, FIG. 6
Method: 1. Cell line: Macrophage RAW264.7.
2. Reagents: LPS (Sigma); iNOS detection kit (Stressgen); MTT (Biotopped).
The level of iNOS protein in macrophages was determined by ELISA using an anti-human iNOS polyclonal antibody (Stressgen). The number of macrophages was determined by using an automatic flow cytometer.

influenza = format: in vivo, human
[4] = system: Mycoplasma pneumoniae (ATCCFH15531); test: In vivo anti-mycoplasma pneumonia experiment (Embodiment 21); settings: azithromycin 40 mg/kg; composition C 40 and 80 mg/kg; 10 days
[5] = randomized controlled trial / meta analyses from the literature; cited from earlier work
Pseudomonas aeruginosa = test: Gram-negative bacteria in vivo (Embodiment 18); parameters: species or system BAL B/C male mice; settings: penicillin 450 mg/kg by gavage 30 min and 24 h after infection
Method: […] BAL B/C male mice weighing 18-22 g were divided into 6 groups with 8 mice in each group. […] After a bacterial solution of Pseudomonas aeruginosa was cultured by streaking on an LB solid medium, a typical colony was picked and inoculated into an ordinary LB liquid medium. After overnight shaking culture at 37° C. for about 12 h, the culture was centrifuged at 4000 r/min for 3 min, the supernatant was discarded, and the bacteria were resuspended in normal saline for later use. The BAL B/C male mice in each experimental group and three control groups were intraperitoneally injected with a fatal dose of Pseudomonas aeruginosa solution at a dose of 500 μL/mouse. 30 min after the BAL B/C male mice in the experimental groups were infected with the bacteria, the medium-dose composition group and the high-dose composition group were administered with drugs by gavage, the penicillin group and the meropenem group were also administered with drugs by gavage, and the normal group was administered with purified water by gavage. 24 h after administration, the BAL B/C male mice in each experimental group and control group were administered for the second time, and the drug type and dosage were the same as the administration for the first time. The BAL B/C male mice were observed every 24 h after administration, and their survival was recorded. All animals were sacrificed on the day 15.

[6] = listed as 5-methyltetrahydrofolic acid
[7] = Folate capsules 400 mg/capsule, per patient, row Mean = mean

## 6S-5-methyltetrahydrofolate calcium
Macrophage RAW264.7 [1]; 1 μg/mL LPS induction
  Lysate NO secretion amount: 1.725 µM
  Supernatant NO secretion amount: 36.814 µM
Macrophage RAW264.7 [1]; 15.625 μmol/L, macrophages induced by LPS, listed as 5-methyltetrahydrofolic acid
  effect on secretion/expression of NO in macrophages: did not inhibit; also recorded: hardly affects
Macrophage RAW264.7 [1]; No induction
  Lysate NO secretion amount: 3.863 µM
  Supernatant NO secretion amount: 1.714 µM
Macrophage RAW264.7 [1]; low concentration, no LPS
  effect on secretion of NO when no LPS stimulation is provided: promote the secretion of NO
Macrophage RAW264.7 [2]
  effect on expression of macrophages and inflammatory factors induced by LPS: no significant effect
[3]; [6]
  peroxynitrite scavenging: excellent peroxynitrite scavenging effects; also recorded: higher ability to scavenge peroxynitrite
iNOS; [6]
  effect on expression of iNOS in macrophages induced by LPS: did not affect; also recorded: almost no effect
influenza; [7]
  Basic rehabilitation (symptoms other than tonsillitis and sore throat disappeared): 33 hours (2×) and 35 hours and 13 hours and 12 hours (2×) and 17 hours (2×) and 32 hours (3×) and 8 hours and 43 hours and 18 hours and 34 hours and 15 hours and 11 hours and 56 hours and 24 hours and 10 hours and 46 hours and 58 hours and 53 hours and 14 hours
  Complete rehabilitation (all symptoms disappeared): 33 hours (2×) and 35 hours and 13 hours (3×) and 12 hours and 17 hours (2×) and 32 hours (2×) and 8 hours and 43 hours and 36 hours (2×) and 48 hours and 56 hours and 46 hours (3×) and 44 hours and 58 hours (2×) and 14 hours
  disappearance time of symptoms: Cough: 33 hours (2×) and 17 hours and 29 hours and 46 hours (2×) and 44 hours and 13 hours and 58 hours
  disappearance time of symptoms: Dizziness and fullness in head: 48 h and 9 h
  disappearance time of symptoms: Dry and itchy throat: 15 h
  disappearance time of symptoms: Fatigue: 35 hours and 8 hours (3×) and 12 hours (3×) and 15 hours and 10 hours (4×) and 33 hours
  disappearance time of symptoms: Headache: 13 hours and 12 hours (4×) and 32 hours (2×) and 8 hours (3×) and 9 hours and 10 hours (2×) and 14 hours
  disappearance time of symptoms: Inappetence: 13 h
  disappearance time of symptoms: Intolerance of cold and cold limbs: 10 h
  disappearance time of symptoms: Low fever: 10 h
  disappearance time of symptoms: Muscular soreness: 16 hours and 13 hours and 32 hours and 9 hours and 15 hours and 10 hours (2×) and 14 hours
  disappearance time of symptoms: Nasal stuffiness: 9 hours and 17 hours and 32 hours (2×) and 8 hours and 43 hours and 12 hours (3×) and 20 hours and 15 hours (2×) and 56 hours and 33 hours and 24 hours and 10 hours and 41 hours
  disappearance time of symptoms: Running nose: 11 hours (2×) and 13 hours and 32 hours and 8 hours and 9 hours and 20 hours and 15 hours and 12 hours (3×) and 33 hours (2×) and 46 hours and 53 hours and 17 hours and 14 hours
  disappearance time of symptoms: Sneezing: 32 hours (2×) and 9 hours (2×) and 18 hours and 34 hours and 15 hours and 12 hours (3×) and 8 hours and 33 hours and 10 hours and 17 hours
  disappearance time of symptoms: Sore throat: 33 hours (2×) and 12 hours (2×) and 32 hours (3×) and 29 hours and 36 hours (2×) and 46 hours and 10 hours and 54 hours and 58 hours and 14 hours
influenza; data in both Table 1 and Table 2
  time until the patients' influenza almost all healed: ≤ 2 days

## NC(=O)c1ccc[n+]([C@@H]2O[C@H](COP(=O)([O-])O)[C@@H](O)[C@H]2O)c1 [NMN, nicotinamide mononucleotide]
[3]
  peroxynitrite scavenging: excellent peroxynitrite scavenging effects; also recorded: higher ability to scavenge peroxynitrite
iNOS
  effect on expression of iNOS in macrophages induced by LPS: did not affect; also recorded: almost no effect

## CC[C@H]1OC(=O)[C@H](C)[C@@H](O[C@H]2C[C@@](C)(OC)[C@@H](O)[C@H](C)O2)[C@H](C)[C@@H](O[C@@H]2O[C@H](C)C[C@H](N(C)C)[C@H]2O)[C@](C)(O)C[C@@H](C)CN(C)[C@H](C)[C@@H](O)[C@]1(C)O [azithromycin]
[4]
  histopathological examination of the lung tissue: Mild interstitial pneumonia

## O=C1O[C@H]([C@@H](O)CO)C(=O)C1=O [dehydroascorbic acid]
[3]
  peroxynitrite scavenging: excellent peroxynitrite scavenging effects; also recorded: higher ability to scavenge peroxynitrite
iNOS
  effect on expression of iNOS in macrophages induced by LPS: almost no effect

## N[C@@H](CCC(=O)N[C@@H](CS)C(=O)NCC(=O)O)C(=O)O [glutathione, reference compound]
iNOS
  effect on expression of iNOS in macrophages induced by LPS: did not affect; also recorded: almost no effect

## C[C@]12CCC(=O)C=C1CC[C@@H]1[C@@H]2[C@@H](O)C[C@@]2(C)[C@H]1CC[C@]2(O)C(=O)CO [hydrocortisone]
[5]
  mortality of patients with sepsis: could not reduce

## O=C1O[C@H]([C@@H](O)CO)C(O)=C1O [vitamin C]
[5]
  mortality of patients with sepsis: cannot improve

## lipopolysaccharide [LPS, reference compound]
Macrophage RAW264.7 [1]; 1 μg/mL LPS induction
  Lysate NO secretion amount: 1.6 µM
  Supernatant NO secretion amount: 37.343 µM
Macrophage RAW264.7 [1]; No induction
  Lysate NO secretion amount: 1.95 µM
  Supernatant NO secretion amount: 42.714 µM

## penicillin
Pseudomonas aeruginosa
  outcome of mice infected with the fatal dose of Pseudomonas aeruginosa: all the mice in the penicillin group died
